Test results as given in patent US4362743A, “Antibacterial monic acid esters” (Beecham Group Limited, priority 1980, dated 1982).
Converted amounts (≈) assume the structure as drawn. Where two headings read alike, the source gives them in different places.

How the values were obtained:
[1] = system: M. suipneumoniae NB12; test: Anti-mycoplasmal activity in vitro MIC; assay type: cell-based; details: Mesomycoplasma hyopneumoniae
[2] = system: M. suipneumoniae HK (2); test: Anti-mycoplasmal activity in vitro MIC; assay type: cell-based; details: Mesomycoplasma hyopneumoniae, 144 h
[3] = system: M. suipneumoniae MS16; test: Anti-mycoplasmal activity in vitro MIC; assay type: cell-based; details: Mesomycoplasma hyopneumoniae
[4] = system: M. suipneumoniae PW/C/210; test: Anti-mycoplasmal activity in vitro MIC; assay type: cell-based; details: Mesomycoplasma hyopneumoniae, 144 h
[5] = system: M. suipneumoniae LABER; test: Anti-mycoplasmal activity in vitro MIC; assay type: cell-based; details: Mesomycoplasma hyopneumoniae, 144 h
[6] = system: M. suipneumoniae ATCC 25095; test: Anti-mycoplasmal activity in vitro MIC; assay type: cell-based; details: Mesomycoplasma hyopneumoniae, ATCC25095, 144 h
[7] = system: M. hyosynoviae ATCC 25591; test: Anti-mycoplasmal activity in vitro MIC; assay type: cell-based; details: 144 h
[8] = system: M. bovigenitalium ATCC 14173; test: Anti-mycoplasmal activity in vitro MIC; assay type: cell-based; details: 144 h
[9] = system: M. gallisepticum S6; test: Anti-mycoplasmal activity in vitro MIC; assay type: cell-based; details: Mycoplasmoides gallisepticum
[10] = system: Bacillus subtilis 6633; test: Human bacteria MIC; assay type: cell-based
Protocol: (§1) The values were determined by serial dilutions in nutrient agar with 5% chocolated horse blood after incubations for 18 hours at 37° C.

[11] = system: Corneybacterium xerosis 9755; test: Human bacteria MIC; assay type: cell-based
Protocol: as §1

[12] = system: E. Coli NCT 10418; test: Human bacteria MIC; assay type: cell-based; details: Escherichia coli
Protocol: as §1

[13] = system: E. coli ESS; test: Human bacteria MIC; assay type: cell-based; details: Escherichia coli
Protocol: as §1

[14] = system: Haemophilus influenzae Q1; test: Human bacteria MIC; assay type: cell-based
Protocol: as §1

[15] = system: K. aerogenes A; test: Human bacteria MIC; assay type: cell-based; details: Klebsiella aerogenes
Protocol: as §1

[16] = system: Neisseria catarralis 1502; test: Human bacteria MIC; assay type: cell-based
Protocol: as §1

[17] = system: P. mirabilis 889; test: Human bacteria MIC; assay type: cell-based
Protocol: as §1

[18] = system: Pasteurella multocida 1633; test: Human bacteria MIC; assay type: cell-based
Protocol: as §1

[19] = system: Ps. aeruginosa 10662; test: Human bacteria MIC; assay type: cell-based
Protocol: as §1

[20] = system: Staph. aureus Oxford; test: Human bacteria MIC; assay type: cell-based; details: Staphylococcus aureus
Protocol: as §1

[21] = system: Staph. aureus Russell; test: Human bacteria MIC; assay type: cell-based; details: Staphylococcus aureus
Protocol: as §1

[22] = system: Staph. aureus W2827; test: Human bacteria MIC; assay type: cell-based; details: Staphylococcus aureus; Staph. aureus W2827; nutrient agar, 5% chocolated horse blood, 18 hours 37° C.; read-out: M.I.C.
Protocol: as §1

[23] = system: Strep Group B 2788; test: Human bacteria MIC; assay type: cell-based
Protocol: as §1

[24] = system: Strep. faecalis I; test: Human bacteria MIC; assay type: cell-based; details: Enterococcus faecalis, nutrient agar, 5% chocolated horse blood, 18 hours 37° C.
Protocol: as §1

[25] = system: Strep. pneumoniae CN33; test: Human bacteria MIC; assay type: cell-based; details: Streptococcus pneumoniae
Protocol: as §1

[26] = system: Strep. pyogenes R80/421; test: Human bacteria MIC; assay type: cell-based; details: Streptococcus pyogenes
Protocol: as §1

[27] = Serum binding by ultrafiltration; assay type: in vitro ADME; details: pig, porcine serum, 8 mcg/ml, read-out: % bound to pig serum (converted)
Protocol: Serum binding was assessed by ultrafiltration of porcine serum containing compounds at 8 mcg/ml, and through an Amicon CF50A ultrafiltration cone. Separation of ultrafiltrate was achieved by centrifugation. Unbound concentrations of compound were measured in the ultrafiltrate by microbiological assay (B. subtilis ATCC 6633) against standards prepared in saline.

[28] = 144 h, M. suipneumoniae NB12, Friis broth, 0.9% agarose, 6 days 37° C., read-out: M.I.C.
[29] = M. suipneumoniae PW/C/210, Friis broth, 0.9% agarose, 6 days 37° C., read-out: M.I.C.
[30] = M. suipneumoniae LABER, Friis broth, 0.9% agarose, 6 days 37° C., read-out: M.I.C.
[31] = 144 h, M. gallisepticum S6, Friis broth, 0.9% agarose, 6 days 37° C., read-out: M.I.C.
[32] = Bacillus subtilis 6633, nutrient agar, 5% chocolated horse blood, 18 hours 37° C., read-out: M.I.C.
[33] = Corneybacterium xerosis 9755, nutrient agar, 5% chocolated horse blood, 18 hours 37° C., read-out: M.I.C.
[34] = E. Coli NCT 10418, nutrient agar, 5% chocolated horse blood, 18 hours 37° C., read-out: M.I.C.
[35] = Haemophilus influenzae Q1, nutrient agar, 5% chocolated horse blood, 18 hours 37° C., read-out: M.I.C.
[36] = K. aerogenes A, nutrient agar, 5% chocolated horse blood, 18 hours 37° C., read-out: M.I.C.
[37] = Neisseria catarralis 1502, nutrient agar, 5% chocolated horse blood, 18 hours 37° C., read-out: M.I.C.
[38] = Proteus mirabilis, P. mirabilis 889, nutrient agar, 5% chocolated horse blood, 18 hours 37° C., read-out: M.I.C.
[39] = Pseudomonas aeruginosa, Ps. aeruginosa 10662, nutrient agar, 5% chocolated horse blood, 18 hours 37° C., read-out: M.I.C.
[40] = Staph. aureus Oxford, nutrient agar, 5% chocolated horse blood, 18 hours 37° C., read-out: M.I.C.
[41] = Staph. aureus Russell, nutrient agar, 5% chocolated horse blood, 18 hours 37° C., read-out: M.I.C.
[42] = Strep Group B 2788, nutrient agar, 5% chocolated horse blood, 18 hours 37° C., read-out: M.I.C.
[43] = Strep. pneumoniae CN33, nutrient agar, 5% chocolated horse blood, 18 hours 37° C., read-out: M.I.C.
[44] = Strep. pyogenes R80/421, nutrient agar, 5% chocolated horse blood, 18 hours 37° C., read-out: M.I.C.
[45] = M. suipneumoniae ATCC 25095, Friis broth, 0.9% agarose, 6 days 37° C., read-out: M.I.C.
[46] = Pasteurella multocida, 1633, 18 h

Row | Compound | MIC [1, 28] [µg/mL] | MIC [2] [µg/mL] | MIC [4, 29] [µg/mL] | MIC [5, 30] [µg/mL] | MIC [8] [µg/mL] | MIC [9, 31] [µg/mL] | MIC [10, 32] [µg/mL] | MIC [11, 33] [µg/mL] | MIC [12, 34] [µg/mL] | MIC [14, 35] [µg/mL] | MIC [15, 36] [µg/mL] | MIC [16, 37] [µg/mL] | MIC [17, 38] [µg/mL] | MIC [19, 39] [µg/mL] | MIC [20, 40] [µg/mL] | MIC [21, 41] [µg/mL] | MIC [22] [µg/mL] | MIC [23, 42] [µg/mL] | MIC [24] [µg/mL] | fraction unbound [27] | further results
1 | C/C(=C\C(=O)OCCCC(=NO)c1cccs1)C[C@@H]1OC[C@H](C[C@@H]2O[C@H]2[C@@H](C)[C@H](C)O)[C@@H](O)[C@H]1O [Example 4, 4-Hydroxyimino-4-(2-thienyl)butyl monate A] | 0.25 (≈ 0.489 µM) | 0.5 (≈ 0.977 µM) | 0.25 (≈ 0.489 µM) | 0.25 (≈ 0.489 µM) | 0.05 (≈ 0.0977 µM) | 10 (≈ 19.5 µM) | 1 (≈ 1.95 µM) | > 100 | > 100 | 0.5 (≈ 0.977 µM) | > 100 | 0.5 (≈ 0.977 µM) | > 100 | > 100 | 1 (≈ 1.95 µM) | 2.5 (≈ 4.89 µM) | 2.5 (≈ 4.89 µM) | 2.5 (≈ 4.89 µM) | 100 (≈ 195 µM) | < 0.039 | MIC ([3]; 144 h, M. suipneumoniae MS16, Friis broth, 0.9% agarose, 6 days 37° C., read-out: M.I.C.): 0.25 µg/mL (≈ 0.489 µM); MIC [6]: 0.5 µg/mL (≈ 0.977 µM); MIC ([7]; M. hyosynoviae ATCC 25591, Friis broth, 0.9% agarose, 6 days 37° C., read-out: M.I.C.): 0.25 µg/mL (≈ 0.489 µM); MIC ([13]; E. coli ESS, nutrient agar, 5% chocolated horse blood, 18 hours 37° C., read-out: M.I.C.): 2.5 µg/mL (≈ 4.89 µM); MIC ([18]; Pasteurella multocida 1633, nutrient agar, 5% chocolated horse blood, 18 hours 37° C., read-out: M.I.C.): 5 µg/mL (≈ 9.77 µM); MIC [25, 43]: 1 µg/mL (≈ 1.95 µM); MIC [26, 44]: 1 µg/mL (≈ 1.95 µM)
2 | CON=C(CCCOC(=O)/C=C(\C)C[C@@H]1OC[C@H](C[C@@H]2O[C@H]2[C@@H](C)[C@H](C)O)[C@@H](O)[C@H]1O)c1ccccc1 [Example 5, 4-Methoxyimino-4-phenylbutyl monate A] |  |  |  |  |  | 10 (≈ 19.2 µM) | 1 (≈ 1.92 µM) | > 100 | > 100 | 2.5 (≈ 4.81 µM) | > 100 | 1 (≈ 1.92 µM) | > 100 | > 100 | 1 (≈ 1.92 µM) | 2.5 (≈ 4.81 µM) | 2.5 (≈ 4.81 µM) | 5 (≈ 9.62 µM) | > 100 | < 0.068 | MIC ([1]; NB12, 144 h): 0.25 µg/mL (≈ 0.481 µM); MIC ([2]; M. suipneumoniae HK (2), Friis broth, 0.9% agarose, 6 days 37° C., read-out: M.I.C.): 0.5 µg/mL (≈ 0.962 µM); MIC ([3]; MS16, 144 h): 0.25 µg/mL (≈ 0.481 µM); MIC [4]: 0.25 µg/mL (≈ 0.481 µM); MIC [5]: 0.25 µg/mL (≈ 0.481 µM); MIC [6, 45]: 0.5 µg/mL (≈ 0.962 µM); MIC [7]: 0.25 µg/mL (≈ 0.481 µM); MIC ([8]; M. bovigenitalium ATCC 14173, Friis broth, 0.9% agarose, 6 days 37° C., read-out: M.I.C.): 0.05 µg/mL (≈ 0.0962 µM); MIC ([13]; 18 h): 5 µg/mL (≈ 9.62 µM); MIC [18, 46]: 50 µg/mL (≈ 96.2 µM); MIC [25, 43]: 2.5 µg/mL (≈ 4.81 µM); MIC [26, 44]: 2.5 µg/mL (≈ 4.81 µM)
3 | C/C(=C\C(=O)OCCCCCC=NN(C)C)C[C@@H]1OC[C@H](C[C@@H]2O[C@H]2[C@@H](C)[C@H](C)O)[C@@H](O)[C@H]1O [Example 6, 6-Dimethylhydrazonohexyl monate A] | 0.5 (≈ 1.03 µM) | 1 (≈ 2.06 µM) | 0.5 (≈ 1.03 µM) | 0.5 (≈ 1.03 µM) | 0.025 (≈ 0.0516 µM) |  |  |  |  |  |  |  |  |  |  |  | 0.25 (≈ 0.516 µM) |  | > 100 | 0.239 | MIC ([3]; MS16, 144 h): 0.25 µg/mL (≈ 0.516 µM); MIC [6, 45]: 0.5 µg/mL (≈ 1.03 µM); MIC [7]: 0.1 µg/mL (≈ 0.206 µM); MIC ([9]; S6, 144 h): 5 µg/mL (≈ 10.3 µM); MIC ([10]; Bacillus subtilis, 6633, 18 h): 5 µg/mL (≈ 10.3 µM); MIC ([11]; 18 h): > 100 µg/mL; MIC ([12]; 18 h): > 100 µg/mL; MIC ([13]; 18 h): 5 µg/mL (≈ 10.3 µM); MIC ([14]; Haemophilus influenzae, Q1, 18 h): 0.5 µg/mL (≈ 1.03 µM); MIC ([15]; 18 h): > 100 µg/mL; MIC ([16]; Neisseria, 1502, 18 h): 0.05 µg/mL (≈ 0.103 µM); MIC ([17]; Proteus mirabilis, 889, 18 h): > 100 µg/mL; MIC [18, 46]: 1 µg/mL (≈ 2.06 µM); MIC ([19]; Pseudomonas aeruginosa, 10662, 18 h): > 100 µg/mL; MIC ([20]; 18 h): 0.1 µg/mL (≈ 0.206 µM); MIC ([21]; 18 h): 0.25 µg/mL (≈ 0.516 µM); MIC ([23]; 18 h): 1 µg/mL (≈ 2.06 µM); MIC ([25]; CN33, 18 h): 1 µg/mL (≈ 2.06 µM); MIC ([26]; R80/421, 18 h): 1 µg/mL (≈ 2.06 µM)
